Biological target: unphosphorylated-BTK kinase domain (UP-BTK), GST-tagged human BTK (389-659aa) (Homo sapiens (Human), UniProt Q06187)
Assay: BTK kinase Lanthascreen binding assay
Settings: Lanthascreen tracer competition, 60 minutes incubation, pIC50 = negative log of the IC50 in molar
How it was run: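 Measures how well compounds compete with a fluorescence-labelled tracer for binding to BTK in its unphosphorylated state. IC50 values were fitted and expressed as pIC50 (negative logarithm of the molar IC50).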

Sequence of unphosphorylated-BTK kinase domain (UP-BTK), GST-tagged human BTK (389-659aa) (Q06187 389-659): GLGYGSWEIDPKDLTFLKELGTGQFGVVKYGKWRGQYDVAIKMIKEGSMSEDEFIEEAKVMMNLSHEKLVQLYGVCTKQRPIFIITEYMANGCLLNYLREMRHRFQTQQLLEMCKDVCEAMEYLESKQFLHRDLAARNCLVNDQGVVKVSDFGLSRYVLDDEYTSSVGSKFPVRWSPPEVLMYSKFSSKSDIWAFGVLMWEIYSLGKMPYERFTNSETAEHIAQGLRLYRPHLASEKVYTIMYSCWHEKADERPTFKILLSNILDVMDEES

| SMILES | BTK_I_binding pIC50 | IC50 (read-out: BTK_I_binding pIC50 (converted)) [nM] |
| --- | --- | --- |
| C=CC(=O)N1CCC[C@@H](NC(=O)c2sc3nccc4c3c2NC(=O)N4c2ccc(Oc3cccnc3C)cc2C)C1 [Example 773, (R)—N-(1-Acryloylpiperidin-3-yl)-5-(2-methyl-4-((2-methylpyridin-3-yl)oxy)phenyl)-4-oxo-4,5-dihydro-3H-1-thia-3,5,8-triazaacenaphthylene-2-carboxamide] | 7.4 | – |
| C=CC(=O)N1CCC[C@@H](NC(=O)c2sc3nccc4c3c2NC(=O)N4c2ccc(Oc3cccnc3)cc2)C1 [Example 774, (R)—N-(1-Acryloylpiperidin-3-yl)-4-oxo-5-(4-(pyridin-3-yloxy)phenyl)-4,5-dihydro-3H-1-thia-3,5,8-triazaacenaphthylene-2-carboxamide] | 7.9 | – |
| C=CC(=O)N1CCC[C@@H](NC(=O)c2sc3nccc4c3c2NC(=O)N4c2ccc(Oc3cccc(C)n3)cc2)C1 [Example 775, (R)—N-(1-Acryloylpiperidin-3-yl)-5-(4-((6-methylpyridin-2-yl)oxy)phenyl)-4-oxo-4,5-dihydro-3H-1-thia-3,5,8-triazaacenaphthylene-2-carboxamide] | 7.5 | – |
| C=CC(=O)N1CCC[C@@H](NC(=O)c2sc3nccc4c3c2NC(=O)N4c2ccc(Oc3ccccc3F)cn2)C1 [Example 777, (R)—N-(1-Acryloylpiperidin-3-yl)-5-(5-(2-fluorophenoxy)pyridin-2-yl)-4-oxo-4,5-dihydro-3H-1-thia-3,5,8-triazaacenaphthylene-2-carboxamide] | 8.3 | – |
| C=CC(=O)N1CCC[C@@H](NC(=O)c2sc3nccc4c3c2NC(=O)N4c2ccc(Oc3ccccn3)cc2C)C1 [Example 778, (R)—N-(1-Acryloylpiperidin-3-yl)-5-(2-methyl-4-(pyridin-2-yloxy)phenyl)-4-oxo-4,5-dihydro-3H-1-thia-3,5,8-triazaacenaphthylene-2-carboxamide] | 8.0 | – |
| O=C(CCCC(=O)NCCCOCCOCCOCCCNC(=O)CCCC[C@H]1SC[C@H]2NC(=O)N[C@H]21)NC/C=C/C(=O)N1CCCC(NC(=O)c2sc3nccc4c3c2NC(=O)N4c2ccc(Oc3ccccc3)cn2)C1 (stereo partly drawn) [Example 780, N^1-(15-Oxo-19-((3aR,4R,6aS)-2-oxohexahydro-1H-thieno[3,4-d]imidazol-4-yl)-4,7,10-trioxa-14-azanonadecyl)-N^5-((E)-4-oxo-4-(3-(4-oxo-5-(5-phenoxypyridin-2-yl)-4,5-dihydro-3H-1-thia-3,5,8-triazaacenaphthylene-2-carboxamido)piperidin-1-yl)but-2-en-1-yl)glutaramide] | 6.3 | – |
| C=CC(=O)N1CC[C@@H](NC(=O)c2sc3nccc4c3c2NC(=O)N4c2ccc(Oc3ccccn3)cc2C)C1 [Example 781, (R)—N-(1-Acryloylpyrrolidin-3-yl)-5-(2-methyl-4-(pyridin-2-yloxy)phenyl)-4-oxo-4,5-dihydro-3H-1-thia-3,5,8-triazaacenaphthylene-2-carboxamide] | 7.4 | – |
| C=CC(=O)N1CCC[C@@H](NC(=O)c2sc3nccc4c3c2NC(=O)N4c2ccc(Oc3ccc(C)nc3)cc2C)C1 [Example 783, (R)—N-(1-Acryloylpiperidin-3-yl)-5-(2-methyl-4-((6-methylpyridin-3-yl)oxy)phenyl)-4-oxo-4,5-dihydro-3H-1-thia-3,5,8-triazaacenaphthylene-2-carboxamide] | 7.1 | – |
| C=CC(=O)N1CCC[C@@H](NC(=O)c2sc3nccc4c3c2NC(=O)N4c2ccc(Oc3cccnn3)cc2C)C1 [Example 784, (R)—N-(1-Acryloylpiperidin-3-yl)-5-(2-methyl-4-(pyridazin-3-yloxy)phenyl)-4-oxo-4,5-dihydro-3H-1-thia-3,5,8-triazaacenaphthylene-2-carboxamide] | 7.4 | – |
| C=CC(=O)N1CCC[C@@H](NC(=O)c2sc3nccc4c3c2NC(=O)N4c2ccc(O[C@H]3CCOC3)cc2C)C1 [Example 785, N—((R)-1-Acryloylpiperidin-3-yl)-5-(2-methyl-4-(((S)-tetrahydrofuran-3-yl)oxy)phenyl)-4-oxo-4,5-dihydro-3H-1-thia-3,5,8-triazaacenaphthylene-2-carboxamide] | 7.1 | – |
| C=CC(=O)N1CCC[C@@H](NC(=O)c2sc3nccc4c3c2NC(=O)N4c2ccc(Oc3ccc(C)cn3)cc2)C1 [Example 786, (R)—N-(1-Acryloylpiperidin-3-yl)-5-(4-((5-methylpyridin-2-yl)oxy)phenyl)-4-oxo-4,5-dihydro-3H-1-thia-3,5,8-triazaacenaphthylene-2-carboxamide] | 6.9 | – |
| C=CC(=O)N1CCC[C@@H](NC(=O)c2sc3nccc4c3c2NC(=O)N4c2ccc(O[C@@H]3CCOC3)cc2C)C1 [Example 787, N—((R)-1-Acryloylpiperidin-3-yl)-5-(2-methyl-4-(((R)-tetrahydrofuran-3-yl)oxy)phenyl)-4-oxo-4,5-dihydro-3H-1-thia-3,5,8-triazaacenaphthylene-2-carboxamide] | 6.6 | – |

Now from value to compound:

| BTK_I_binding pIC50 | IC50 (read-out: BTK_I_binding pIC50 (converted)) [nM] | SMILES |
| --- | --- | --- |
| – | 200 | C=CC(=O)N1CCCC(C(=O)Nc2sc3nccc4c3c2NC(=O)N4c2ccc(Oc3ccccc3)cc2C)C1 (centres unmarked) [Example 788, 1-Acryloyl-N-(5-(2-methyl-4-phenoxyphenyl)-4-oxo-4,5-dihydro-3H-1-thia-3,5,8-triazaacenaphthylen-2-yl)piperidine-3-carboxamide] |
| 6.7 | – | C=CC(=O)N1CC[C@@H](NC(=O)c2sc3nccc4c3c2NC(=O)N4c2ccc(Oc3cccnn3)cc2C)C1 [Example 790, (R)—N-(1-Acryloylpyrrolidin-3-yl)-5-(2-methyl-4-(pyridazin-3-yloxy)phenyl)-4-oxo-4,5-dihydro-3H-1-thia-3,5,8-triazaacenaphthylene-2-carboxamide] |
| 6.6 | – | C=CC(=O)N1CCC[C@@H](NC(=O)c2sc3nccc4c3c2NC(=O)N4c2ccc(Oc3cccnn3)cc2)C1 [Example 791, (R)—N-(1-Acryloylpiperidin-3-yl)-4-oxo-5-(4-(pyridazin-3-yloxy)phenyl)-4,5-dihydro-3H-1-thia-3,5,8-triazaacenaphthylene-2-carboxamide] |
| 6.4 | – | C=CC(=O)N1CCC[C@H](NC(=O)c2sc3nccc4c3c2NC(=O)N4c2ccc(Oc3ccccc3)cn2)C1 [Example 795, (S)—N-(1-Acryloylpiperidin-3-yl)-4-oxo-5-(5-phenoxypyridin-2-yl)-4,5-dihydro-3H-1-thia-3,5,8-triazaacenaphthylene-2-carboxamide] |
| 6.3 | – | C=CC(=O)N1CCN(c2sc3nccc4c3c2NC(=O)N4c2ccc(Oc3ccccc3)cc2C)CC1 [Example 796, 2-(4-Acryloylpiperazin-1-yl)-5-(2-methyl-4-phenoxyphenyl)-3H-1-thia-3,5,8-triazaacenaphthylen-4(5H)-one] |
| 6.2 | – | CCC(=O)N1CCC[C@@H](NC(=O)c2sc3nccc4c3c2NC(=O)N4c2ccc(Oc3ccccn3)cc2C)C1 [Example 799, (R)-5-(2-Methyl-4-(pyridin-2-yloxy)phenyl)-4-oxo-N-(1-propionylpiperidin-3-yl)-4,5-dihydro-3H-1-thia-3,5,8-triazaacenaphthylene-2-carboxamide] |
| 6.2 | – | CC(=O)N1CCC[C@@H](NC(=O)c2sc3nccc4c3c2NC(=O)N4c2ccc(Oc3ccccn3)cc2C)C1 [Example 800, (R)—N-(1-Acetylpiperidin-3-yl)-5-(2-methyl-4-(pyridin-2-yloxy)phenyl)-4-oxo-4,5-dihydro-3H-1-thia-3,5,8-triazaacenaphthylene-2-carboxamide] |
| 6.2 | – | Cc1cc(Oc2ccccc2)ccc1N1C(=O)Nc2c(NC(=O)C3CCCN(C(=O)/C(C#N)=C/C4CC4)C3)sc3nccc1c23 (centres unmarked) [Example 801, (E)-1-(2-Cyano-3-cyclopropylacryloyl)-N-(5-(2-methyl-4-phenoxyphenyl)-4-oxo-4,5-dihydro-3H-1-thia-3,5,8-triazaacenaphthylen-2-yl)piperidine-3-carboxamide] |
| 6.1 | – | Cc1cc(Oc2ccccc2)ccc1N1C(=O)Nc2c(NC(=O)C3CCCN(C#N)C3)sc3nccc1c23 (centres unmarked) [Example 802, 1-Cyano-N-(5-(2-methyl-4-phenoxyphenyl)-4-oxo-4,5-dihydro-3H-1-thia-3,5,8-triazaacenaphthylen-2-yl)piperidine-3-carboxamide] |
| 6.1 | – | C=CC(=O)N1CC[C@@H](NC(=O)c2sc3nccc4c3c2NC(=O)N4c2ccc(Oc3cccnn3)cc2)C1 [Example 803, (R)—N-(1-Acryloylpyrrolidin-3-yl)-4-oxo-5-(4-(pyridazin-3-yloxy)phenyl)-4,5-dihydro-3H-1-thia-3,5,8-triazaacenaphthylene-2-carboxamide] |
| 6.0 | – | CCC(=O)N1CCC(C(=O)Nc2sc3nccc4c3c2NC(=O)N4c2ccc(Oc3ccccc3)cc2C)CC1 [Example 805, N-(5-(2-Methyl-4-phenoxyphenyl)-4-oxo-4,5-dihydro-3H-1-thia-3,5,8-triazaacenaphthylen-2-yl)-1-propionylpiperidine-4-carboxamide] |
| <6 | – | CCC(=O)N1CCC[C@@H](NC(=O)c2sc3nccc4c3c2NC(=O)N4c2ccc(Oc3ccccn3)cc2)C1 [Example 807, (R)-4-Oxo-N-(1-propionylpiperidin-3-yl)-5-(4-(pyridin-2-yloxy)phenyl)-4,5-dihydro-3H-1-thia-3,5,8-triazaacenaphthylene-2-carboxamide] |
| <6 | – | CC(=O)N1CCC[C@@H](NC(=O)c2sc3nccc4c3c2NC(=O)N4c2ccc(Oc3ccccn3)cc2)C1 [Example 808, (R)—N-(1-Acetylpiperidin-3-yl)-4-oxo-5-(4-(pyridin-2-yloxy)phenyl)-4,5-dihydro-3H-1-thia-3,5,8-triazaacenaphthylene-2-carboxamide] |
| <6 | – | CCC(=O)N1CCC[C@@H](NC(=O)c2sc3nccc4c3c2NC(=O)N4c2ccc(Oc3cccnn3)cc2C)C1 [Example 809, (R)-5-(2-Methyl-4-(pyridazin-3-yloxy)phenyl)-4-oxo-N-(1-propionylpiperidin-3-yl)-4,5-dihydro-3H-1-thia-3,5,8-triazaacenaphthylene-2-carboxamide] |
